# Reference: patent publication US7138361B2, “Herbicidal heterocycles” (E. I. du Pont de Nemours and Company, priority 2000, dated 2006)
# What was measured:
# Experiment in all cases: Test C preemergence
# Format in all cases: in vivo
# [1] = test system: Nightshade
# [2] = test system: Sunflower; details: Rate 125 g/ha; scale 0 to 100, 0 no effect, 100 complete control
# [3] = test system: Surinam grass (Brachiaria decumbens); details: for Plant response rating (0 to 100), Surinam grass: Rate 500 g/ha, visual evaluation after 12 to 14 days
# In short: (§1)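 Visual 0–100 rating vs controls (0 = no effect, 100 = complete control) at 12–14 d, greenhouse. Compounds in non-phytotoxic solvent + surfactant; pre: sprayed after seeding; post: 1–4-leaf plants, 2–18 cm.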
# [4] = test system: bermudagrass (Cynodon dactylon); details: for Plant response rating (0 to 100 where 0 is no effect and 100 is complete control), Bermudagrass: Rate 500 g/ha, visual evaluation after 12 to 14 days
# In short: as §1
# [5] = test system: cocklebur (Xanthium strumarium); details: for Plant response rating (0 to 100), Cocklebur: Rate 500 g/ha, visual evaluation after 12 to 14 days
# In short: as §1
# [6] = test system: common ragweed (Ambrosia elatior); details: for Plant response rating (0 to 100), Ragweed, Common: Rate 500 g/ha, visual evaluation after 12 to 14 days
# In short: as §1
# [7] = test system: corn (Zea mays); details: for Plant response rating (0 to 100), Corn: Rate 500 g/ha, visual evaluation after 12 to 14 days
# In short: as §1
# [8] = test system: crabgrass (Digitaria sanguinalis); details: for Plant response rating (0 to 100), Crabgrass: Rate 500 g/ha, visual evaluation after 12 to 14 days
# In short: as §1
# [9] = test system: giant foxtail (Setaria faberii); details: for Plant response rating (0 to 100), Foxtail, Giant: Rate 500 g/ha, visual evaluation after 12 to 14 days
# In short: as §1
# [10] = test system: goosegrass (Eleusine indica); details: for Plant response rating (0 to 100), Goosegrass: Rate 500 g/ha, visual evaluation after 12 to 14 days
# In short: as §1
# [11] = test system: johnsongrass (Sorghum halepense); details: for Plant response rating (0 to 100), Johnsongrass: Rate 500 g/ha, visual evaluation after 12 to 14 days
# In short: as §1
# [12] = test system: kochia (Kochia scoparia); details: for Plant response rating (0 to 100), Kochia: Rate 500 g/ha, visual evaluation after 12 to 14 days
# In short: as §1
# [13] = test system: lambsquarters (Chenopodium album); details: for Plant response rating (0 to 100), Lambsquarters: Rate 500 g/ha, visual evaluation after 12 to 14 days
# In short: as §1
# [14] = test system: morningglory (Ipomoea hederacea); details: for Plant response rating (0 to 100), Morningglory: Rate 500 g/ha, visual evaluation after 12 to 14 days
# In short: as §1
# [15] = test system: pigweed (Amaranthus retroflexus); details: for Plant response rating (0 to 100), Pigweed: Rate 500 g/ha, visual evaluation after 12 to 14 days
# In short: as §1
# [16] = test system: soybean (Glycine max); details: for Plant response rating (0 to 100), Soybean: Rate 500 g/ha, visual evaluation after 12 to 14 days
# In short: as §1
# [17] = test system: velvetleaf (Abutilon theophrasti); details: for Plant response rating (0 to 100), Velvetleaf: Rate 500 g/ha, visual evaluation after 12 to 14 days
# In short: as §1
# [18] = test system: woolly cupgrass (Eriochloa villosa); details: for Plant response rating (0 to 100), Cupgrass, Woolly: Rate 500 g/ha, visual evaluation after 12 to 14 days
# In short: as §1
# [19] = test system: yellow nutsedge (Cyperus esculentus); details: for Plant response rating (0 to 100), Nutsedge: Rate 500 g/ha, visual evaluation after 12 to 14 days
# In short: as §1
# [20] = test system: Nightshade; details: Rate 500 g/ha, visual evaluation after 12 to 14 days
# [21] = test system: Sunflower; details: Rate 250 g/ha, scale 0 to 100, 0 no effect, 100 complete control
# [22] = test system: Sunflower; details: Rate 62 g/ha, scale 0 to 100
# [23] = Rate 125 g/ha, scale 0 to 100, 0 no effect, 100 complete control
# [24] = Rate 250 g/ha, scale 0 to 100, 0 no effect, 100 complete control
# [25] = preemergence, Rate 62 g/ha, scale 0 to 100
# [26] = preemergence, Rate 250 g/ha, scale 0 to 100, 0 no effect, 100 complete control
smiles,measurement,setting,value
COc1cc(N2CCC(n3ccc(C(C)(C)C)n3)C2=O)ccc1Cl (centres unmarked) [Compound 117],"Plant response rating, Nightshade","[1]; Rate 62 g/ha, scale 0 to 100",100
same,"Plant response rating, Nightshade",[1]; [23],100
same,"Plant response rating, Nightshade",[1]; [24],100
same,"Plant response rating, Sunflower",[2],40
same,"Plant response rating, Surinam grass",[3]; [23],10
same,"Plant response rating, Surinam grass",[3]; [25],10
same,"Plant response rating (0 to 100), Surinam grass",[3]; preemergence,100
same,"Plant response rating, Surinam grass",[3]; [26],75
same,"Plant response rating, Bermudagrass",[4]; [23],100
same,"Plant response rating, Bermudagrass",[4]; [25],100
same,"Plant response rating (0 to 100 where 0 is no effect and 100 is complete control), Bermudagrass",[4]; preemergence,100
same,"Plant response rating, Bermudagrass",[4]; [26],100
same,"Plant response rating, Cocklebur",[5]; [23],10
same,"Plant response rating, Cocklebur",[5]; [25],0
same,"Plant response rating (0 to 100), Cocklebur",[5]; preemergence,85
same,"Plant response rating, Cocklebur",[5]; [26],50
same,"Plant response rating, Ragweed, Common",[6]; [23],100
same,"Plant response rating, Ragweed, Common",[6]; [25],100
same,"Plant response rating (0 to 100), Ragweed, Common",[6]; preemergence,100
same,"Plant response rating, Ragweed, Common",[6]; [26],100
same,"Plant response rating, Corn",[7]; [23],30
same,"Plant response rating, Corn",[7]; [25],0
same,"Plant response rating (0 to 100), Corn",[7]; preemergence,50
same,"Plant response rating, Corn",[7]; [26],45
same,"Plant response rating, Crabgrass",[8]; [23],100
same,"Plant response rating, Crabgrass",[8]; [25],100
same,"Plant response rating (0 to 100), Crabgrass",[8]; preemergence,100
same,"Plant response rating, Crabgrass",[8]; [26],100
same,"Plant response rating, Foxtail, Giant",[9]; [23],0
same,"Plant response rating, Foxtail, Giant",[9]; [25],100
same,"Plant response rating (0 to 100), Foxtail, Giant",[9]; preemergence,100
same,"Plant response rating, Foxtail, Giant",[9]; [26],100
same,"Plant response rating, Goosegrass",[10]; [23],100
same,"Plant response rating, Goosegrass",[10]; [25],100
same,"Plant response rating (0 to 100), Goosegrass",[10]; preemergence,100
same,"Plant response rating, Goosegrass",[10]; [26],100
same,"Plant response rating, Johnsongrass",[11]; [23],50
same,"Plant response rating, Johnsongrass",[11]; [25],45
same,"Plant response rating (0 to 100), Johnsongrass",[11]; preemergence,90
same,"Plant response rating, Johnsongrass",[11]; [26],50
same,"Plant response rating, Kochia",[12]; [23],100
same,"Plant response rating, Kochia",[12]; [25],90
same,"Plant response rating (0 to 100), Kochia",[12]; preemergence,100
same,"Plant response rating, Kochia",[12]; [26],100
same,"Plant response rating, Lambsquarters",[13]; [23],100
same,"Plant response rating, Lambsquarters",[13]; [25],100
same,"Plant response rating (0 to 100), Lambsquarters",[13]; preemergence,100
same,"Plant response rating, Lambsquarters",[13]; [26],100
same,"Plant response rating, Morningglory",[14]; [23],10
same,"Plant response rating, Morningglory",[14]; [25],0
same,"Plant response rating (0 to 100), Morningglory",[14]; preemergence,100
same,"Plant response rating, Morningglory",[14]; [26],100
same,"Plant response rating, Pigweed",[15]; [23],100
same,"Plant response rating, Pigweed",[15]; [25],100
same,"Plant response rating (0 to 100), Pigweed",[15]; preemergence,30
same,"Plant response rating, Pigweed",[15]; [26],100
same,"Plant response rating, Soybean",[16]; [23],100
same,"Plant response rating, Soybean",[16]; [25],100
same,"Plant response rating (0 to 100), Soybean",[16]; preemergence,100
same,"Plant response rating, Soybean",[16]; [26],100
same,"Plant response rating, Velvetleaf",[17]; [23],90
same,"Plant response rating, Velvetleaf",[17]; [25],80
same,"Plant response rating (0 to 100), Velvetleaf",[17]; preemergence,100
same,"Plant response rating, Velvetleaf",[17]; [26],100
same,"Plant response rating, Cupgrass, Woolly",[18]; [23],100
same,"Plant response rating, Cupgrass, Woolly",[18]; [25],80
same,"Plant response rating (0 to 100), Cupgrass, Woolly",[18]; preemergence,100
same,"Plant response rating, Cupgrass, Woolly",[18]; [26],100
same,"Plant response rating, Nutsedge",[19]; [23],0
same,"Plant response rating, Nutsedge",[19]; [25],0
same,"Plant response rating (0 to 100), Nutsedge",[19]; preemergence,0
same,"Plant response rating, Nutsedge",[19]; [26],0
same,"Plant response rating (0 to 100), Nightshade",[20],100
same,"Plant response rating, Sunflower",[21],60
same,"Plant response rating, Sunflower",[22],35
CCC(CC)c1ccn(C2CCN(c3ccc(Cl)c(OC)c3)C2=O)n1 (centres unmarked) [Compound 118],"Plant response rating, Nightshade","[1]; Rate 62 g/ha, scale 0 to 100",100
same,"Plant response rating, Nightshade",[1]; [23],100
same,"Plant response rating, Nightshade",[1]; [24],100
same,"Plant response rating, Sunflower",[2],50
same,"Plant response rating, Surinam grass",[3]; [23],10
same,"Plant response rating, Surinam grass",[3]; [25],0
same,"Plant response rating (0 to 100), Surinam grass",[3]; preemergence,50
same,"Plant response rating, Surinam grass",[3]; [26],30
same,"Plant response rating, Bermudagrass",[4]; [23],100
same,"Plant response rating, Bermudagrass",[4]; [25],100
same,"Plant response rating (0 to 100 where 0 is no effect and 100 is complete control), Bermudagrass",[4]; preemergence,100
same,"Plant response rating, Bermudagrass",[4]; [26],100
same,"Plant response rating, Cocklebur",[5]; [23],0
same,"Plant response rating, Cocklebur",[5]; [25],0
same,"Plant response rating (0 to 100), Cocklebur",[5]; preemergence,0
same,"Plant response rating, Cocklebur",[5]; [26],0
same,"Plant response rating, Ragweed, Common",[6]; [25],60
same,"Plant response rating (0 to 100), Ragweed, Common",[6]; preemergence,100
same,"Plant response rating, Ragweed, Common",[6]; [26],80
same,"Plant response rating, Corn",[7]; [23],0
same,"Plant response rating, Corn",[7]; [25],0
same,"Plant response rating (0 to 100), Corn",[7]; preemergence,35
same,"Plant response rating, Corn",[7]; [26],10
same,"Plant response rating, Crabgrass",[8]; [23],100
same,"Plant response rating, Crabgrass",[8]; [25],100
same,"Plant response rating (0 to 100), Crabgrass",[8]; preemergence,100
same,"Plant response rating, Crabgrass",[8]; [26],100
same,"Plant response rating, Foxtail, Giant",[9]; [23],100
same,"Plant response rating, Foxtail, Giant",[9]; [25],0
same,"Plant response rating (0 to 100), Foxtail, Giant",[9]; preemergence,100
same,"Plant response rating, Foxtail, Giant",[9]; [26],100
same,"Plant response rating, Goosegrass",[10]; [23],100
same,"Plant response rating, Goosegrass",[10]; [25],100
same,"Plant response rating (0 to 100), Goosegrass",[10]; preemergence,100
same,"Plant response rating, Goosegrass",[10]; [26],100
same,"Plant response rating, Johnsongrass",[11]; [23],40
same,"Plant response rating, Johnsongrass",[11]; [25],0
same,"Plant response rating (0 to 100), Johnsongrass",[11]; preemergence,100
same,"Plant response rating, Johnsongrass",[11]; [26],70
same,"Plant response rating, Kochia",[12]; [23],100
same,"Plant response rating, Kochia",[12]; [25],80
same,"Plant response rating (0 to 100), Kochia",[12]; preemergence,100
same,"Plant response rating, Kochia",[12]; [26],100
same,"Plant response rating, Lambsquarters",[13]; [23],100
same,"Plant response rating, Lambsquarters",[13]; [25],100
same,"Plant response rating (0 to 100), Lambsquarters",[13]; preemergence,100
same,"Plant response rating, Lambsquarters",[13]; [26],100
same,"Plant response rating, Morningglory",[14]; [23],20
same,"Plant response rating, Morningglory",[14]; [25],0
same,"Plant response rating (0 to 100), Morningglory",[14]; preemergence,100
same,"Plant response rating, Morningglory",[14]; [26],90
same,"Plant response rating, Pigweed",[15]; [23],100
same,"Plant response rating, Pigweed",[15]; [25],75
same,"Plant response rating (0 to 100), Pigweed",[15]; preemergence,100
same,"Plant response rating, Pigweed",[15]; [26],100
same,"Plant response rating, Soybean",[16]; [23],60
same,"Plant response rating, Soybean",[16]; [25],40
same,"Plant response rating (0 to 100), Soybean",[16]; preemergence,90
same,"Plant response rating, Soybean",[16]; [26],65
same,"Plant response rating, Velvetleaf",[17]; [23],100
same,"Plant response rating, Velvetleaf",[17]; [25],20
same,"Plant response rating (0 to 100), Velvetleaf",[17]; preemergence,100
same,"Plant response rating, Velvetleaf",[17]; [26],100
same,"Plant response rating, Cupgrass, Woolly",[18]; [23],90
same,"Plant response rating, Cupgrass, Woolly",[18]; [25],40
same,"Plant response rating (0 to 100), Cupgrass, Woolly",[18]; preemergence,100
same,"Plant response rating, Cupgrass, Woolly",[18]; [26],100
same,"Plant response rating, Nutsedge",[19]; [23],0
same,"Plant response rating, Nutsedge",[19]; [25],0
same,"Plant response rating (0 to 100), Nutsedge",[19]; preemergence,0
same,"Plant response rating, Nutsedge",[19]; [26],0
same,"Plant response rating (0 to 100), Nightshade",[20],100
same,"Plant response rating, Sunflower",[21],60
same,"Plant response rating, Sunflower",[22],0
